Experimental data published in patent publication US12642773B2, “Coated drug compositions and methods of preparing the same” (Applied Materials, Inc., priority 2020, dated 2026).
≈ marks a conversion by molar mass, not a printed value.

Assay: Solubility of ezetimibe
Type: physicochemical
Text: Crystallization decreases the solubility of ezetimibe. […] In contrast, the release rate from coated 50% drug loading ASD particles barely changed.

Row | solubility [µg/mL] | Compound
1 | 20.2 ± 0.4 (≈ 49.3 µM) | O=C1[C@H](CC[C@H](O)c2ccc(F)cc2)[C@@H](c2ccc(O)cc2)N1c1ccc(F)cc1 [amorphous ezetimibe, ezetimibe]
2 | 0.8 ± 0.3 (≈ 1.95 µM) | O=C1[C@H](CC[C@H](O)c2ccc(F)cc2)[C@@H](c2ccc(O)cc2)N1c1ccc(F)cc1 [crystalline ezetimibe, ezetimibe]
